“Also recorded” adds a separate entry of the source. Where two headings read alike, the source gives them in different places.
Tests used:
[1] = test system: NCC (lysis of IM-9 target cells); assay: Costimulation assay: NCC cytotoxicity (51Cr release) with A23187 or mab 5C6; assay type: cell-based, channel catfish (Ictalurus punctatus); conditions: for Percentage specific release: E:T 40:1, 10^-4 M A23187, 60 μM H7 and HA1004, 0.5 μg/ml genistein, 1:3 dilution of tissue culture supernatant, media control 20.6; for activity at 0.5 µg/mL: Ictalurus punctatus, IM-9, 2 h; for influence of pretreatment on A23187 activation: pretreatment prior to A23187
Method: Incubation was two hours and cells were either washed or not washed before addition to ^51 Cr-labeled IM-9 target cells (4- to 6-hour cytotoxicity assays).
To further investigate this inhibitory effect, a costimulus experiment was done using a calcium ionophore, e.g., A23187, combined with the various inhibitors and activators of NCC activity. Pretreatment of NCC with A23187 produced an almost identical increase in cytotoxicity regardless of the identity of the first treatment.
In a second costimulus experiment mab 5C6 was used (instead of A23187) to activate cytotoxicity (Table 6).

NCC = conditions: cited from earlier work
[2] = test system: NCC membrane proteins (tyrosine phosphorylation); assay: Tyrosine phosphorylation of NCC membrane proteins following mab 5C6 activation (Western blot); assay type: cell-based, channel catfish (Ictalurus punctatus); conditions: NCC pretreated two hours with inhibitor; 100 μg/ml genistein or 30 μM HA1004
Method: FIG. 1. Tyrosine phosphorylation of NCC membrane proteins following activation by mab 5C6. NCC were resuspended at 500×10^6 /ml and 200 μl aliquots were incubated at 37° C. with either 125 μl ammonium sulfate precipitate mab 5C6 (left panel) or an isotype control (right panel). At the indicated timed intervals, the reactions were terminated by addition of 325 μl of 2×lysis buffer. Lysates were immunoprecipitated with mab 4G10, electrophoresed on 11% SDS-PAGE, blotted onto nitrocellulose, and probed with mab 4G10. Molecular weight markers are indicated by the arrows.
FIG. 2. Tyrosine phosphorylation of Percoll-enriched NCC. Fish NCC were centrifuged for 15 minutes at 500 g on a 45.5% Percoll cushion. The cells at the interphase were harvested, washed, and treated with mab 5C6 for 0 and 20 sec before addition of 2×lysis buffer. Lysates were electrophoresed, blotted on nitrocellulose, and probed with mab 4G10.
FIG. 3. Effects of genistein on tyrosine phosphorylation in fish NCC. Fish NCC were incubated with media, genistein (100 μg/ml), or HA1004 (30 μM) for two hours prior to activation for zero time with mab 5C6 (left lane) and 40 sec with either mab 5C6 (middle lane) or an irrelevant IgM isotype control (right lane). Reactions were stopped by addition of lysis buffer and lysates were processed as explained in the legends to FIGS. 1 and 2. […]

[3] = test system: protein tyrosine kinase (PTK); conditions: NK cells; cited from earlier work
[4] = test system: serine/threonine phosphorylation; conditions: NK cells; cited from earlier work
[5] = test system: NCC (lysis of IM-9 target cells); assay: NCC cytotoxicity (51Cr release) after treatment with protein kinase inhibitors; assay type: cell-based, channel catfish (Ictalurus punctatus); conditions: for inhibition at 30 µM / inhibition at 60 µM: E:T 80:1
Method: To prepare NCC, fish were lightly anesthetized with ethyl m-aminobenzoate (Sigma Chemical Co.) in water and sacrificed.
IM-9 target cells were used in cytotoxicity assays. […] Cells were grown in stationary suspension cultures and were maintained at approximately 1×10^6 cells/ml. […]

human NK cells = conditions: same concentration of H-7; cited from earlier work
[6] = test system: cyclic nucleotide dependent kinases; conditions: cited from earlier work

Q: Which results are given for `CNc1ccc2oc(C[C@H]3O[C@@]4(CC[C@H]3C)O[C@H]([C@H](C)C(=O)c3ccc[nH]3)[C@H](C)C[C@H]4C)nc2c1C(=O)O` [A23187]?
A: Percentage specific release [1]: 81.0%; activation of NCC cytotoxicity ([1]; Table 5): strong activation of NCC cytotoxicity; ability to overcome kinase inhibitor inhibition of NCC cytotoxicity ([1]; after H-7 or genistein): able to overcome the inhibition produced by treatment of NCC with H-7 or genistein; cytotoxicity of NCC (words, prior work) (NCC): activated NCC cytotoxicity and increased "receptor" expression

Q: Which Percentage specific release [1] does the source give for `O=c1c(-c2ccc(O)cc2)coc2cc(O)cc(O)c12` [Genistein, genistein] here?
A: Its Percentage specific release is 11.0%.

Q: And the activity at 0.5 µg/mL ([1]; 4 × 10^6 NCC/ml, mabs 1:50 dilution, H-7, HA1004 60 μM, genistein 0.5 μg/ml, read-out: Percentage of control (E:T ratio) 40%)?
A: The activity at 0.5 µg/mL was 38.9%.

Q: And the activity at 0.5 µg/mL ([1]; mabs 1:50 dilution, H-7, HA1004 60 μM, genistein 0.5 μg/ml, read-out: Percentage of control (E:T ratio) 20%)?
A: The activity at 0.5 µg/mL was 35.5%.

Q: And the “influence of pretreatment on A23187 activation” value [1]?
A: The value was “did not produce any reductions in A23187 activation; also recorded: did not appear to be additive and did not influence the final level of activation”.

Q: And the “specific protein phosphorylation after mab 5C6” value [2]?
A: Its value is “Specific protein phosphorylation was not observed”.

Q: And the “PTK activity” value [3]?
A: Its value is “inhibit PTK activity”.

Q: And the “serine/threonine phosphorylation” value [4]?
A: Its value is “no effect on serine/threonine phosphorylation”.

Q: And the “inhibition of NCC cytotoxicity” value [5]?
A: Its value is “almost completely inhibited NCC activity in a dose-dependent fashion”.

Q: What about the inhibition at 142 µg/mL ([5]; Ictalurus punctatus, IM-9, 142 μg/ml, read-out: inhibition of cytotoxicity) of the same compound?
A: Its inhibition at 142 µg/mL is ~100%.

Q: What about the inhibition at 14.2 µg/mL ([5]; Ictalurus punctatus, 14.2 μg/ml, E:T 20:1, 6 hours, read-out: Percentage inhibition (NCC lysis of IM-9)) of the same compound?
A: The inhibition at 14.2 µg/mL was 55.5%.

Q: What about the inhibition at 28.4 µg/mL ([5]; Ictalurus punctatus, 28.4 μg/ml, E:T 20:1, 6 hours, read-out: Percentage inhibition (NCC lysis of IM-9)) of the same compound?
A: Its inhibition at 28.4 µg/mL is 75.9%.

Q: What about the inhibition at 57 µg/mL ([5]; Ictalurus punctatus, 57.0 μg/ml, E:T 20:1, 6 hours, read-out: Percentage inhibition (NCC lysis of IM-9)) of the same compound?
A: Its inhibition at 57 µg/mL is 64.9%.

Q: And the inhibition at 142 µg/mL ([5]; Ictalurus punctatus, 142.0 μg/ml, E:T 20:1, 6 hours, read-out: Percentage inhibition (NCC lysis of IM-9))?
A: The inhibition at 142 µg/mL was 94%.

Q: What about the inhibition of cytotoxicity ([5]; between approximately 14 and approximately 57 μg/ml) of the same compound?
A: The inhibition of cytotoxicity was “greater than 50%”.

Q: Which results are given for `CC1CNCCN1S(=O)(=O)c1cccc2cnccc12.Cl.Cl` (stereo not shown) [H-7, 1-(5-isoquinolinesulfonyl)-2-methylpiperazine di-HCl]?
A: Percentage of control (E:T ratio) 40% ([1]; 4 × 10^6 NCC/ml, mabs 1:50 dilution, H-7, HA1004 60 μM, genistein 0.5 μg/ml, 120 min): 37.5%; Percentage specific release [1]: 9.1%; Percentage of control (E:T ratio) 20% ([1]; mabs 1:50 dilution, H-7, HA1004 60 μM, genistein 0.5 μg/ml, 120 min): 53.9%; influence of pretreatment on A23187 activation ([1]; di-HCl): did not produce any reductions in A23187 activation; also recorded: did not appear to be additive and did not influence the final level of activation; inhibition of human NK cells (human NK cells): 60-90%; inhibition at 30 µM ([5]; Ictalurus punctatus, 1 h, read-out: Percentage inhibition (NCC lysis of IM-9), 30 μM, 60 min): 12.5%; inhibition at 60 µM ([5]; Ictalurus punctatus, 1 h, read-out: Percentage inhibition (NCC lysis of IM-9), 60 μM, 60 min): 10.2%; inhibition at 30 µM ([5]; Ictalurus punctatus, 2 h, read-out: Percentage inhibition (NCC lysis of IM-9), 30 μM, 120 min): 31%; inhibition at 60 µM ([5]; Ictalurus punctatus, 2 h, read-out: Percentage inhibition (NCC lysis of IM-9), 60 μM, 120 min): 12.6%; inhibition at 30 µM ([5]; Ictalurus punctatus, 3 h, read-out: Percentage inhibition (NCC lysis of IM-9), 30 μM, 180 min/wash): 34.2%; inhibition at 30 µM ([5]; Ictalurus punctatus, 3 h, read-out: Percentage inhibition (NCC lysis of IM-9), 30 μM, 180 min): 37.8%; inhibition at 60 µM ([5]; Ictalurus punctatus, 3 h, read-out: Percentage inhibition (NCC lysis of IM-9), 60 μM, 180 min/wash): 34.5%; inhibition at 60 µM ([5]; Ictalurus punctatus, 3 h, read-out: Percentage inhibition (NCC lysis of IM-9), 60 μM, 180 min): 35.7%; level of inhibition of NCC activity ([5]; summary of Table 1): approximately 35%; effect of removal (washing) of inhibitor on cytotoxicity ([5]; washed prior to addition of target cells): did not substantially affect the cytotoxicity; inhibition of cyclic nucleotide dependent kinases [6]: to a lesser extent it inhibits cyclic nucleotide kinases

Reference: patent US5593678A, “Protection of teleost fish” (University of Georgia Research Foundation, priority 1994, dated 1997)
